Results published in PubChem BioAssay (NCI).
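Interpolation was linear, between the two tested concentrations surrounding the appropriate level; five concentrations were tested over 48 hours in 96-well plates. TGI: concentration producing complete growth inhibition.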

Tests used:
Assay in all cases: inhibition of tumour cell growth, NCI panel, 48 h
786-0 renal = tested on: 786-0 renal
A498 renal = tested on: A498 renal
A549 NSCLC = tested on: A549 NSCLC
ACHN renal = tested on: ACHN renal
BT-549 breast = tested on: BT-549 breast
CAKI-1 renal = tested on: CAKI-1 renal
CCRF-CEM leukemia = tested on: CCRF-CEM leukemia
COLO 205 colon = tested on: COLO 205 colon
DU-145 prostate = tested on: DU-145 prostate
EKVX NSCLC = tested on: EKVX NSCLC
HCT-116 colon = tested on: HCT-116 colon
HCT-15 colon = tested on: HCT-15 colon
HL-60(TB) leukemia = tested on: HL-60(TB) leukemia
HOP-92 NSCLC = tested on: HOP-92 NSCLC
IGROV1 ovarian = tested on: IGROV1 ovarian
K-562 leukemia = tested on: K-562 leukemia
LOX IMVI melanoma = tested on: LOX IMVI melanoma
M14 melanoma = tested on: M14 melanoma
MALME-3M melanoma = tested on: MALME-3M melanoma
MCF7 breast = tested on: MCF7 breast
MDA-MB-231 breast = tested on: MDA-MB-231 breast
MDA-MB-435 = tested on: MDA-MB-435
MDA-N = tested on: MDA-N
MOLT-4 leukemia = tested on: MOLT-4 leukemia
NCI-H226 lung = tested on: NCI-H226 lung
NCI-H23 lung = tested on: NCI-H23 lung
NCI-H460 lung = tested on: NCI-H460 lung
NCI-H522 lung = tested on: NCI-H522 lung
NCI/ADR-RES ovarian = tested on: NCI/ADR-RES ovarian
OVCAR-3 ovarian = tested on: OVCAR-3 ovarian
OVCAR-4 ovarian = tested on: OVCAR-4 ovarian
OVCAR-5 ovarian = tested on: OVCAR-5 ovarian
OVCAR-8 ovarian = tested on: OVCAR-8 ovarian
PC-3 prostate = tested on: PC-3 prostate
RPMI-8226 leukemia = tested on: RPMI-8226 leukemia
RXF 393 renal = tested on: RXF 393 renal
SF-295 CNS = tested on: SF-295 CNS
SF-539 CNS = tested on: SF-539 CNS
SK-MEL-2 melanoma = tested on: SK-MEL-2 melanoma
SK-MEL-5 melanoma = tested on: SK-MEL-5 melanoma
SK-OV-3 ovarian = tested on: SK-OV-3 ovarian
SN12C renal = tested on: SN12C renal
SNB-75 CNS = tested on: SNB-75 CNS
SR leukemia = tested on: SR leukemia
SW-620 colon = tested on: SW-620 colon
TK-10 renal = tested on: TK-10 renal
U251 CNS = tested on: U251 CNS
UACC-257 melanoma = tested on: UACC-257 melanoma
UACC-62 melanoma = tested on: UACC-62 melanoma
UO-31 renal = tested on: UO-31 renal
HCC-2998 colon = tested on: HCC-2998 colon
HOP-62 NSCLC = tested on: HOP-62 NSCLC
HS 578T breast = tested on: HS 578T breast
HT29 colon = tested on: HT29 colon
KM12 colon = tested on: KM12 colon
SF-268 CNS = tested on: SF-268 CNS
SK-MEL-28 melanoma = tested on: SK-MEL-28 melanoma
SNB-19 CNS = tested on: SNB-19 CNS

Work on `N#Cc1c(-c2ccc(Cl)cc2)c(C#N)c(=O)n(NS(=O)(=O)c2ccccc2)c1S` yielded a TGI (786-0 renal) of 34.6 µM, a TGI (A498 renal) of over 100 µM and a TGI (A549 NSCLC) of over 100 µM. The TGI (ACHN renal) was 85.3 µM, the TGI (BT-549 breast) was 66.1 µM and the TGI (CAKI-1 renal) was 66.6 µM. The TGI (CCRF-CEM leukemia) was over 100 µM, the TGI (COLO 205 colon) was over 100 µM and the TGI (DU-145 prostate) was over 100 µM. It also gave a TGI (EKVX NSCLC) of over 100 µM, a TGI (HCT-116 colon) of 91.2 µM and a TGI (HCT-15 colon) of 49.6 µM. For the same molecule, the TGI (HL-60(TB) leukemia) was 60 µM, the TGI (HOP-92 NSCLC) was over 100 µM and the TGI (IGROV1 ovarian) was 65.5 µM. The TGI (K-562 leukemia) was over 100 µM, the TGI (LOX IMVI melanoma) was 50.6 µM and the TGI (M14 melanoma) was over 100 µM. The TGI (MALME-3M melanoma) was over 100 µM, the TGI (MCF7 breast) was over 100 µM and the TGI (MDA-MB-231 breast) was 75.2 µM. It also gave a TGI (MDA-MB-435) of 65 µM, a TGI (MDA-N) of 67.3 µM and a TGI (MOLT-4 leukemia) of over 100 µM. For the same molecule, the TGI (NCI-H226 lung) was 77.1 µM, the TGI (NCI-H23 lung) was over 100 µM and the TGI (NCI-H460 lung) was 46 µM. For the same molecule, the TGI (NCI-H522 lung) was 47.4 µM, the TGI (NCI/ADR-RES ovarian) was 74.2 µM and the TGI (OVCAR-3 ovarian) was over 100 µM. It also gave a TGI (OVCAR-4 ovarian) of over 100 µM, a TGI (OVCAR-5 ovarian) of over 100 µM and a TGI (OVCAR-8 ovarian) of 65 µM. For the same molecule, the TGI (PC-3 prostate) was over 100 µM, the TGI (RPMI-8226 leukemia) was 75.6 µM and the TGI (RXF 393 renal) was over 100 µM. The TGI (SF-295 CNS) was over 100 µM, the TGI (SF-539 CNS) was 42.1 µM and the TGI (SK-MEL-2 melanoma) was over 100 µM. For the same molecule, the TGI (SK-MEL-5 melanoma) was 33.3 µM, the TGI (SK-OV-3 ovarian) was over 100 µM and the TGI (SN12C renal) was 78 µM. The TGI (SNB-75 CNS) was over 100 µM, the TGI (SR leukemia) was 56.5 µM and the TGI (SW-620 colon) was 69.9 µM. It also gave a TGI (TK-10 renal) of 70.6 µM, a TGI (U251 CNS) of 71.9 µM and a TGI (UACC-257 melanoma) of over 100 µM. For the same molecule, the TGI (UACC-62 melanoma) was 58.3 µM and the TGI (UO-31 renal) was 45.3 µM.
`C(=Nc1ccc(-c2cc(-c3ccccc3)nc3ccc4ccccc4c23)cc1)c1ccccc1` was tested, and the TGI (786-0 renal) was over 100 µM, the TGI (A498 renal) was 70.3 µM and the TGI (A549 NSCLC) was 62.2 µM. The TGI (ACHN renal) was over 100 µM, the TGI (CAKI-1 renal) was 75.4 µM and the TGI (CCRF-CEM leukemia) was over 100 µM. It also gave a TGI (COLO 205 colon) of 42.6 µM, a TGI (DU-145 prostate) of 68.6 µM and a TGI (EKVX NSCLC) of 92.8 µM. The TGI (HCC-2998 colon) was 26.6 µM, the TGI (HCT-116 colon) was over 100 µM and the TGI (HCT-15 colon) was over 100 µM. The TGI (HL-60(TB) leukemia) was over 100 µM, the TGI (HOP-62 NSCLC) was 56.1 µM and the TGI (HS 578T breast) was 68.6 µM. It also gave a TGI (HT29 colon) of 40.3 µM, a TGI (IGROV1 ovarian) of over 100 µM and a TGI (K-562 leukemia) of over 100 µM. For the same molecule, the TGI (KM12 colon) was 68 µM, the TGI (LOX IMVI melanoma) was over 100 µM and the TGI (M14 melanoma) was 50.4 µM. The TGI (MALME-3M melanoma) was over 100 µM, the TGI (MCF7 breast) was over 100 µM and the TGI (MDA-MB-231 breast) was over 100 µM. The TGI (MDA-MB-435) was 55.5 µM, the TGI (MDA-N) was over 100 µM and the TGI (MOLT-4 leukemia) was over 100 µM. For the same molecule, the TGI (NCI-H226 lung) was 66.3 µM, the TGI (NCI-H23 lung) was over 100 µM and the TGI (NCI-H460 lung) was over 100 µM. It also gave a TGI (NCI/ADR-RES ovarian) of over 100 µM, a TGI (OVCAR-3 ovarian) of 68.9 µM and a TGI (OVCAR-4 ovarian) of 13.5 µM. It also gave a TGI (OVCAR-5 ovarian) of over 100 µM, a TGI (OVCAR-8 ovarian) of over 100 µM and a TGI (PC-3 prostate) of over 100 µM. For the same molecule, the TGI (RPMI-8226 leukemia) was over 100 µM, the TGI (RXF 393 renal) was 47.9 µM and the TGI (SF-268 CNS) was over 100 µM. It also gave a TGI (SF-295 CNS) of 48.8 µM, a TGI (SF-539 CNS) of 66.3 µM and a TGI (SK-MEL-28 melanoma) of over 100 µM. It also gave a TGI (SK-MEL-5 melanoma) of 42.3 µM, a TGI (SK-OV-3 ovarian) of over 100 µM and a TGI (SN12C renal) of over 100 µM. For the same molecule, the TGI (SNB-19 CNS) was 58 µM, the TGI (SNB-75 CNS) was over 100 µM and the TGI (SR leukemia) was over 100 µM. The TGI (SW-620 colon) was over 100 µM, the TGI (TK-10 renal) was 74.6 µM and the TGI (U251 CNS) was over 100 µM. For the same molecule, the TGI (UACC-257 melanoma) was 92.1 µM, the TGI (UACC-62 melanoma) was 62.1 µM and the TGI (UO-31 renal) was 73.1 µM.
